Holding throughout (format): cell-based
The target in test [1] is T1, Nav1.7 (Homo sapiens, UniProt Q15858).
T1 construct: gene SCN9A
Nature of the test: whole-cell voltage-clamp in CHO cells stably expressing hNav1.[…].

Test [2] deals with T2, Nav1.8 (Mus musculus, UniProt Q6QIY3).
T2 construct: gene Scn10a
Nature of the test: whole-cell voltage-clamp in ND7/[…] cells transiently expressing mNav1.[…], single concentration […].

The target of test [3] is T3, Nav1.6 (Homo sapiens, UniProt Q9UQD0).
T3 construct: gene SCN8A
T3 sequence (Q9UQD0 whole entry): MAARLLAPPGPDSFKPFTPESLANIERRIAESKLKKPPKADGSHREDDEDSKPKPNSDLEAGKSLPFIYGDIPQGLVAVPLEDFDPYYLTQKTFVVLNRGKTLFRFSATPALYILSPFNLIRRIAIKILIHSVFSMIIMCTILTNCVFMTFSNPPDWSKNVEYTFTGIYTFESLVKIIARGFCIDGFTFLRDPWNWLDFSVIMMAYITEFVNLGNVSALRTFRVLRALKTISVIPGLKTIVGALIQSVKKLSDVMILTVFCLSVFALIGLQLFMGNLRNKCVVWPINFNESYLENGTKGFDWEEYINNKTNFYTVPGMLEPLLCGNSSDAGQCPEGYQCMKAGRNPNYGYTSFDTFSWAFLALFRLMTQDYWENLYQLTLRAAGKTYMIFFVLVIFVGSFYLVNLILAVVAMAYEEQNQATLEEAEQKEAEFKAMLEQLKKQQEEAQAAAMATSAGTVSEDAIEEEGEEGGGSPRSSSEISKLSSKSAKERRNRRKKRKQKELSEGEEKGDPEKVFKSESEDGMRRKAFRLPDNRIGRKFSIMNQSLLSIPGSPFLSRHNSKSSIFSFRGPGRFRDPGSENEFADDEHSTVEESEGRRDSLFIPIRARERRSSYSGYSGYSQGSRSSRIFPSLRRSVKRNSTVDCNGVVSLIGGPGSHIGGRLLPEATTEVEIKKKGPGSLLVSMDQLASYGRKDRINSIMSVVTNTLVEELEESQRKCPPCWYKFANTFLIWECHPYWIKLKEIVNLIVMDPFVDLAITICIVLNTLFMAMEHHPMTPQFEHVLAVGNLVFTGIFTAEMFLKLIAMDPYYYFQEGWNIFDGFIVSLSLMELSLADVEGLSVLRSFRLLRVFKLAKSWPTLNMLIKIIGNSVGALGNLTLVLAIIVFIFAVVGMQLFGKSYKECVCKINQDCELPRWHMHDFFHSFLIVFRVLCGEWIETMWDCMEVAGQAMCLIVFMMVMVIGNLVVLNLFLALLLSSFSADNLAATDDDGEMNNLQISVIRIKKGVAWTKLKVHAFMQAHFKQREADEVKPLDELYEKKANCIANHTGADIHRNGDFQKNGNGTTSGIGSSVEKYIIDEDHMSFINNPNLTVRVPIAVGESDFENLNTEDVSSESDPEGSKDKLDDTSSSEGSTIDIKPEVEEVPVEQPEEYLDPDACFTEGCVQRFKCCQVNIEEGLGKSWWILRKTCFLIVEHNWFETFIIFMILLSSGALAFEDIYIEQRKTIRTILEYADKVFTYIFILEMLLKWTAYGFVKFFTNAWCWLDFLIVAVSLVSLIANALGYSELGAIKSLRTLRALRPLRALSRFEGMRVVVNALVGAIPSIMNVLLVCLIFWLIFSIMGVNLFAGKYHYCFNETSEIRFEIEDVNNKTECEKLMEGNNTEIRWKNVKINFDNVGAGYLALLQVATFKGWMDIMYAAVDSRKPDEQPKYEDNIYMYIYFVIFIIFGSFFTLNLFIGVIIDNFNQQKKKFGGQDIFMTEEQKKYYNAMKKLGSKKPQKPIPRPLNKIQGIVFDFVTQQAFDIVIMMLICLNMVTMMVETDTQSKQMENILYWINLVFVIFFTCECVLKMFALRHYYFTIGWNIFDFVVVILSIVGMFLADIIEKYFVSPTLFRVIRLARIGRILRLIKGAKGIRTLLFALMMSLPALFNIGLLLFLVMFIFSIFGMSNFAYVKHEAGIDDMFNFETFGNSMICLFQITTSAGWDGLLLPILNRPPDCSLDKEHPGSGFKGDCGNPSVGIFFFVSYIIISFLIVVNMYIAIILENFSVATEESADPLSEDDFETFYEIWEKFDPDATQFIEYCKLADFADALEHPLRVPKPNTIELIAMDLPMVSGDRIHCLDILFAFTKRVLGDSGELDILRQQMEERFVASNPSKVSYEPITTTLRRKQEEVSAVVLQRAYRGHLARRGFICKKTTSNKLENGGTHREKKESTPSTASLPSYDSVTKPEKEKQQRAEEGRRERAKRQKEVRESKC
Nature of the test: whole-cell voltage-clamp in CHO cells stably expressing hNav1.[…], single concentration […].

T1 sequence (Q15858 whole entry): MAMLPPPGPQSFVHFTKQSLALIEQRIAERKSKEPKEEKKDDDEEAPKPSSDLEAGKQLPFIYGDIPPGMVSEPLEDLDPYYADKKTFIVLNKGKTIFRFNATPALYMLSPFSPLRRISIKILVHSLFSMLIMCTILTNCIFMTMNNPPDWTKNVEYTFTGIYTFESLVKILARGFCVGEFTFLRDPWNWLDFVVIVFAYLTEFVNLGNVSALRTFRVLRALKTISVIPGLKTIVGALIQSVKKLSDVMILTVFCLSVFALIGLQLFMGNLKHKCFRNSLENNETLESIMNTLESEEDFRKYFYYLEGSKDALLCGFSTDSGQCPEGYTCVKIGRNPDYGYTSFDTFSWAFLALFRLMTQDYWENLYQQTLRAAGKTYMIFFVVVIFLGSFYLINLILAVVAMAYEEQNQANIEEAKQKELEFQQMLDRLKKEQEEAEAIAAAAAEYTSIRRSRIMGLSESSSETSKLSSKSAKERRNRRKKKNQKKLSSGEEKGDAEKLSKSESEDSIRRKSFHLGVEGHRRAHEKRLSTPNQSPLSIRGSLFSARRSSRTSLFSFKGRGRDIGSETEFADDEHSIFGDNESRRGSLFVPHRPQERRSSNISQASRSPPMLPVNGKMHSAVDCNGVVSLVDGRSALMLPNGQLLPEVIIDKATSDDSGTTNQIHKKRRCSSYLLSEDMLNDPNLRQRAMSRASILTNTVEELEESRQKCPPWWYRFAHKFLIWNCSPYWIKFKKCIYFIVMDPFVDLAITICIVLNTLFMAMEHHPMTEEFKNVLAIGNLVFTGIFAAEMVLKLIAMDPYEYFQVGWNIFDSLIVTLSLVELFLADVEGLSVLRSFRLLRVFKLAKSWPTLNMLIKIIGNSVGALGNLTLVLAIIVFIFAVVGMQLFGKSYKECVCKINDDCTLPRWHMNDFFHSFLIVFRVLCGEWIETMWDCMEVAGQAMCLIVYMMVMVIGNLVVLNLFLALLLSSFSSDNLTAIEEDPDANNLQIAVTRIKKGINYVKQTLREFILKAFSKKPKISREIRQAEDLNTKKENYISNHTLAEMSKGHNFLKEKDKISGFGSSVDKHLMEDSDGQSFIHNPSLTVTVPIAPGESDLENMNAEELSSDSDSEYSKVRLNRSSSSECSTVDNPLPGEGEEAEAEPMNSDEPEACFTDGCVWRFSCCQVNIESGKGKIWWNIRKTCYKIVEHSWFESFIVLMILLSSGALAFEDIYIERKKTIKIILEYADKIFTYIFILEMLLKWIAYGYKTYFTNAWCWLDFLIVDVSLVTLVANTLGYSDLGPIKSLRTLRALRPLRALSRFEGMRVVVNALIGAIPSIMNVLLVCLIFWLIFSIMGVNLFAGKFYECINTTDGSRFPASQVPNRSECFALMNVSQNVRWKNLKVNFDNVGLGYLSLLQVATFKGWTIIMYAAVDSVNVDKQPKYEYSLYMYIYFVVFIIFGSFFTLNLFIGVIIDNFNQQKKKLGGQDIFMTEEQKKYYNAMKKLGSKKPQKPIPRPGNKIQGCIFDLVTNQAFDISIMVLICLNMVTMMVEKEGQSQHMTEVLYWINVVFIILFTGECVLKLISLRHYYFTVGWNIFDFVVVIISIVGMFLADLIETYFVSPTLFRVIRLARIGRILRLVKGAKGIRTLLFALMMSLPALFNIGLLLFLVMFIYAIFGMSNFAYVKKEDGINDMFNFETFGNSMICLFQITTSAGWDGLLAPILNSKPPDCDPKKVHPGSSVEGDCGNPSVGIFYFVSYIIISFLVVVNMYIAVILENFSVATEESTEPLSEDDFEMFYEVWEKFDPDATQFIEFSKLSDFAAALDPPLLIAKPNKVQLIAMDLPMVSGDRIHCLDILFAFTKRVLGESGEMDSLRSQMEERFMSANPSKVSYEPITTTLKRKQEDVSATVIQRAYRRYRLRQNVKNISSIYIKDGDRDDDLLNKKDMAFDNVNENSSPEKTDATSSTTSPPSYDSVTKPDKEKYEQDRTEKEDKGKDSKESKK

Take `COc1cc(-c2coc3cc(O)cc(O)c3c2=O)ccc1O` [3’-O-methylorobol]: the IC50 (usually the point on the concentration scale where inhibition reaches its midpoint) in test [1] was 3.46 µM. Besides, the values for the inhibition at 10 µM in test [2] and in test [3] were 23% and 39%, respectively.
